What all share (test): DTP human tumour cell line panel, 48 h
Test [1] deals with 786-0.
Test [2] concerns CCRF-CEM.
For test [3], the system named is HCT-15.
Test [4] concerns HL-60.
The test system of test [5] is HOP-62.
Test [6] has as its system IGROV-1.
The test system of test [7] is K562.
Test [8] relates to KM12.
In test [9] the test system is LOX IMVI.
Test [10] has as its system M14.
The test system of test [11] is MCF7.
The test system of test [12] is NCI-H23.
Test [13] has as its system OVCAR-4.
The subject of test [14] is RXF 393.
For test [15], the system named is SF-295.
For test [16], the system named is SF-539.
Test [17] deals with SW-620.
Test [18] relates to U-251.
For test [19], the system named is UACC-257.

The structures appear in SMILES notation.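 Step 1: Grow cells in 96-well plates. Step 2: Expose to compound for 48 hours at 5 concentrations. Step 3: Interpolate endpoints linearly; if unreached, use highest concentration. GI50 marks 50% less growth.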 Active and inactive are the calls of the source. Cut-off read from the data, not from the text of the source: active = GI50 up to about 1.1 µM and inactive = higher.

As a reminder, the GI50 is the concentration giving 50% growth inhibition. Regarding `BrC1(c2ccccc2)C[n+]2c(-c3ccccc3)cc(-c3ccccc3)cc2-c2ccccc21` (configuration not stated), the concentration for 50% growth inhibition (GI50) in [1] was 0.661 µM (active); in test [2], 0.52 µM (active); in test [3], 2.9 µM; in [4] it was 0.168 µM (active); in test [5], 0.611 µM (active); in test [6], 0.289 µM (active). For the same compound, the GI50 in [7] is 0.159 µM (active); in test [8], 0.299 µM (active); in test [9], 0.363 µM (active); in test [10], 0.499 µM (active); in [11], 0.184 µM (active); in [12], 1 µM (active). Also, the concentration for 50% growth inhibition (GI50) in test [13] is 0.977 µM (active); in test [14], 0.183 µM (active); in test [15], 1.03 µM (active); in [16] it was 0.764 µM (active); in test [17] it was 0.426 µM (active); in test [18] it was 0.226 µM (active). Further, in test [19], the GI50 was 0.233 µM (active).
Consider `CCCCCCCCCCCCCCCCOCC(CCl)OP(=O)(O)OP(=O)(O)OCC1OC(n2ccc(N)nc2=O)C(O)C1O` (configuration not stated), for which the GI50 in test [1] is > 100 µM (inactive); in test [2] it was > 100 µM (inactive); in test [3], > 100 µM; in test [4] it was > 100 µM (inactive); in [5] it was > 100 µM (inactive); in test [6], > 100 µM (inactive). Further, the GI50 in test [7], in test [8], in [9], in test [10], in test [11] and in test [12] was > 100 µM (inactive) throughout. Besides, the GI50 in test [13], in test [14], in [15], in test [16], in test [17] and in test [18] was > 100 µM (inactive) in each case. In [19], the GI50 is > 100 µM (inactive).
For `CCN(CC)C1CCC(C2c3cc4c(cc3OC(N3CCOCC3)C2C)OCO4)CC1` (configuration not stated), the GI50 is 33.7 µM (inactive) in test [1]; 27.2 µM (inactive) in [2]; 12.1 µM in test [3]; 22.6 µM (inactive) in [4]; 18.3 µM (inactive) in test [5]; > 27.9 µM (inactive) in test [6]. In addition, the GI50 in test [7] is 8.77 µM (inactive); in test [8], 16.8 µM (inactive); in test [9], 11.4 µM (inactive); in test [10], 13.7 µM (inactive); in test [11] it was 22.6 µM (inactive); in [12] it was 19.6 µM (inactive). Moreover, the GI50 is > 100 µM (inactive) in test [13]; 10.7 µM (inactive) in test [14]; 9.46 µM (inactive) in test [15]; 22.3 µM (inactive) in test [16]; 16.1 µM (inactive) in test [17]; 37.1 µM (inactive) in test [18]. The GI50 in [19] is 18.4 µM (inactive).
Turning to `COC1=C(OC)C(=O)C(Sc2ccc3ccccc3c2)=CC1=O`, the GI50 in test [1] is 3.72 µM (inactive); in [2], 1.29 µM (inactive); in [3], 9.68 µM; in test [4], 0.716 µM (active); in test [5], 13.2 µM (inactive); in test [6], 12.4 µM (inactive). Besides, the GI50 in test [7] is 2.99 µM (inactive); in test [8], 5.86 µM (inactive); in test [9], 3.54 µM (inactive); in test [10], 4.35 µM (inactive); in test [11], 4.25 µM (inactive); in test [12], 11.2 µM (inactive). The GI50 in test [13] is 3.67 µM (inactive); in test [14], 6.85 µM (inactive); in test [15] it was 9.42 µM (inactive); in test [16] it was 13.5 µM (inactive); in [17], 3.5 µM (inactive); in [18] it was 4.89 µM (inactive). For the same compound, the GI50 in test [19] was 7.69 µM (inactive).
In the case of `COc1cc(-c2oc3c(OC)c(O)cc(O)c3c(=O)c2OC)ccc1O`, the GI50 in test [1] was 16.9 µM (inactive); in [2], 3.12 µM (inactive); in test [3], 3.67 µM; in test [4] it was 3.56 µM (inactive); in test [5], 3 µM (inactive); in test [6], 3.09 µM (inactive). Besides, the GI50 in test [7] is 5.12 µM (inactive); in [8] it was 10 µM (inactive); in test [9], 4.12 µM (inactive); in [10] it was 4.12 µM (inactive); in test [11] it was 19.7 µM (inactive); in [12] it was 16.7 µM (inactive). Besides, the GI50 was 8.41 µM (inactive) in test [13]; 3.73 µM (inactive) in test [14]; 17.5 µM (inactive) in test [15]; 5.47 µM (inactive) in [16]; 13.8 µM (inactive) in test [17]; 3.66 µM (inactive) in [18]. In addition, the GI50 in test [19] is 26 µM (inactive).
As for `O=c1[nH]c(=S)[nH]c(-c2ccccc2)c1Cc1c(O)ccc2ccccc12` [CAMBINOL], the GI50 in test [1] is 34.9 µM (inactive); in [2], 19.9 µM (inactive); in test [3], 34.4 µM; in test [4] it was 20.6 µM (inactive); in test [5], 64 µM (inactive); in [6], 33.7 µM (inactive). In addition, the GI50 in test [7] was 31.3 µM (inactive); in test [8] it was 30.6 µM (inactive); in test [9], 36.1 µM (inactive); in test [10], 27.9 µM (inactive); in test [11], 33 µM (inactive); in [12], 29.6 µM (inactive). Besides, the GI50 in test [13] is 39.7 µM (inactive); in test [14], 29.8 µM (inactive); in [15], 52 µM (inactive); in [16], 25.6 µM (inactive); in [17], 42.8 µM (inactive); in test [18], 36.1 µM (inactive). The GI50 in test [19] was 27.2 µM (inactive).
Turning to `Cc1c(S(=O)(=O)N/C(=N\O)Nc2ccc(Cl)c(Cl)c2)sc2ccc(Cl)cc12`, the GI50 was 19.7 µM (inactive) in test [1]; 26.8 µM (inactive) in [2]; 17.1 µM in [3]; 26.7 µM (inactive) in test [4]; 18.5 µM (inactive) in [5]; 17.5 µM (inactive) in test [6]. For the same compound, the GI50 was 29.5 µM (inactive) in test [7]; 16.9 µM (inactive) in test [8]; 20.7 µM (inactive) in [9]; 21.5 µM (inactive) in test [10]; 24.9 µM (inactive) in test [11]; 17.8 µM (inactive) in [12]. Moreover, the GI50 is 15.1 µM (inactive) in test [13]; 16.9 µM (inactive) in test [14]; 16 µM (inactive) in test [15]; 23 µM (inactive) in test [16]; 39.4 µM (inactive) in [17]; 21.3 µM (inactive) in test [18]. In addition, in test [19], the GI50 was 19.9 µM (inactive).
With `CCN(CC)CCN(C)c1ccc(CO)c2c1c(=O)c1ccccc1[s+]2[O-]` (configuration not stated), the GI50 in test [1] is 1.71 µM (inactive); in test [2], 3.78 µM (inactive); in test [3] it was 4.2 µM; in test [4] it was 16.8 µM (inactive); in [5], 4.52 µM (inactive); in [6], 16.9 µM (inactive). Also, the GI50 was 3.83 µM (inactive) in test [7]; 1.98 µM (inactive) in test [8]; 1.78 µM (inactive) in test [9]; 2.11 µM (inactive) in test [10]; 9.77 µM (inactive) in [11]; 4.08 µM (inactive) in [12]. In addition, the GI50 in [13] is 5.6 µM (inactive); in test [14], 12 µM (inactive); in test [15], 13.6 µM (inactive); in test [16], 1.82 µM (inactive); in test [17], 1.88 µM (inactive); in test [18], 1.69 µM (inactive). Further, the GI50 in test [19] was 2 µM (inactive).
Turning to `CC(=O)NC1C(OCc2ccccc2)OC(CO)C(O)C1OCC(=O)N1CCCC1C(=O)N[C@@H](CCC(=O)NCCNCCNc1c2ccccc2nc2cccc([N+](=O)[O-])c12)C(N)=O` (some centres not stated), the GI50 in test [1] is 2.14 µM (inactive); in test [2], 1.69 µM (inactive); in test [3], 2.11 µM; in [4] it was 3.78 µM (inactive); in test [5], 2.54 µM (inactive); in test [6], 2.56 µM (inactive). The 50% growth inhibitory concentration (GI50) is 0.655 µM (active) in test [7]; 3.46 µM (inactive) in test [8]; 4.55 µM (inactive) in [9]; 2.92 µM (inactive) in test [10]; 0.724 µM (active) in [11]; 2.51 µM (inactive) in test [12]. In addition, the GI50 in test [13] is 3.91 µM (inactive); in [14], 2.17 µM (inactive); in test [15], 5.33 µM (inactive); in test [16], 3.27 µM (inactive); in test [17], 1.31 µM (inactive); in [18] it was 2.44 µM (inactive). The GI50 in test [19] is 6.28 µM (inactive).
For the compound `N=c1oc2ccccc2cc1-c1nc2ccccc2c(=O)[nH]1`, the GI50 in test [1] was 31.4 µM (inactive); in [2], 79.4 µM (inactive); in [3], 78.2 µM; in test [4], 45.7 µM (inactive); in test [5], 22.7 µM (inactive); in [6], 6 µM (inactive). Further, the GI50 is > 100 µM (inactive) in [7]; 39.8 µM (inactive) in test [8]; 54.5 µM (inactive) in test [9]; > 100 µM (inactive) in test [10]; 19.5 µM (inactive) in test [11]; > 100 µM (inactive) in [13]. The GI50 was 31.4 µM (inactive) in [14]; 32.7 µM (inactive) in test [15]; 60.4 µM (inactive) in test [16]; 72.3 µM (inactive) in [17]; 32 µM (inactive) in test [18]; > 100 µM (inactive) in test [19].
In the case of `C=CCNC(=O)NC(=O)CSC1=NC(=O)C2(NN1)c1ccccc1-c1ccccc12`, the GI50 in test [1] was > 10 µM (inactive); in test [2], > 10 µM (inactive); in test [3], > 10 µM; in [4] it was > 10 µM (inactive); in test [5], > 10 µM (inactive); in test [6] it was > 10 µM (inactive). Also, the GI50 in [7], in test [8], in test [9], in test [10], in [11] and in [12] was > 10 µM (inactive) in each case. Also, the GI50 in test [13], in test [14], in test [15], in test [16], in test [17] and in test [19] was > 10 µM (inactive) in each case.

Values taken from ChEMBL document CHEMBL1201862, “PubChem BioAssay data set” (2004).
